According to US7169604B1, “Method for PR-39 peptide mediated selective inhibition of IκBα degradation” (Beth Israel Deaconess Medical Center, priority 1998, dated 2007):
Ends that are not written are not given here.

Tests used:
U937 cells = assay: Proteasome-dependent degradation of total cellular proteins (35S Met pulse-chase); format: cell-based, human; conditions: 10 μM, 1 hr chase, chloroquin 45 μM, after 16 hr metabolic labeling
Experimental: Therefore the extent of degradation of long-lived cell proteins before or following exposure was compared to either PR-39 or MG132. The result is given by FIG. 3A.
Exponentially proliferating U937 cells were grown in 10% FBS-RPMI 1640 methionine-free medium supplemented with 200 μCi ^35S Met for 16 hr. Cells were then washed with complete RPMI 1640 medium 3 times and cultured in 10% FBS-RPMI (chase) in the presence of 10 μM of either PR-39 or MG132 or an equal volume of PBS. Chloroquin (45 μM) was added to all cultures to prevent the lysosomal protein degradation. 1 hr later the cells were lysed, and TCA soluble ^35S counts were measured in a liquid scintillation counter (LKB). All experiments were carried out in triplicate and repeated three times. The data are shown as mean±standard deviation.

ICAM-1 and VCAM-1 = ICAM-1 and VCAM-1 expression in mouse infarct model; format: in vivo; conditions: transgenic αMHC-PR-39 mice vs control mice, coronary artery ligation, 1, 3 or 7 days
Excerpt: NFκB-dependent transcription is also activated following induction of ischemia in the heart, leading to increased expression of several adhesion molecules, including ICAM-1 and VCAM-1. To test the effect of PR-39 peptide on NFκB-dependent gene expression in this model, we assessed VCAM-1 and ICAM-1 protein levels following induction of myocardial infarction in transgenic mice expressing PR-39 cDNA in cardiac myocytes (αMHC-PR-39) and age-matched control mice. The result is given by FIG. 2D.
Transgenic mice stably expressing PR-39 in cardiac myocytes (αMHC-PR-39 mice) or litter mate controls (control mice) were subjected to acute coronary artery ligation as described (30) and randomized to intraperitoneal implantation of Alzet minipumps (Alza Corp, Palo Alto, Calif.) delivering 1 μg/kg/24 hr of PR-39 or buffer. Myocardial tissues collected 1, 3 or 7 days later were subjected to Western blot analysis for ICAM-1 and VCAM-1 gene expression that were normalized to expression levels prior to induction of infarction. Note the rapid increase in both ICAM-1 and VCAM-1 expression in control but not αMHC-PR-39 mice.
In contrast, induction of myocardial infarction had no effect on either ICAA-1 or VCAM-1 protein levels in αMHC-PR-39 mice.

IκBα [1] = assay: Reversibility of inhibition of IκBα degradation after washout in U937 cells; format: cell-based, human; conditions: 100 nM for 45 min, washed, 45 min later TNF-α 1 ng/ml, 10 min
Experimental: In parallel cells were exposed to MG132, a rapidly reversible competitive inhibitor of the proteasome or with lactacystin which covalently and irreversibly modifies the active site threonine residues. The results are shown by FIG. 1F.
U937 cells were pretreated with 100 nM of PR-39, 10 μM of either MG132 or lactacystin (LC) or buffer (Control) for 45 min. These cells were then extensively washed with fresh medium. 45 min later TNF-α (1 ng/ml) was added to medium, and the extent of IκBα degradation was determined 10 min later by Western blotting.

p21, cyclin E and c-fos = assay: Levels of proteasome-regulated proteins by Western blotting; format: cell-based, human
Experimental: This is shown by FIG. 3C.
The level of proteasome-regulated cell cycle repressor p21, cyclin E and c-fos proteins were determined by Western blotting in U937 cells pretreated with various amounts of PR-39 and then exposed to TNF-α (1 ng/ml).

[2] = target: T1, α7 subunit of the 20S proteasome (Mus musculus, UniProt O70435); assay: Yeast two-hybrid binding of PR-39 to α7 and its fragments; conditions: growth of lacZ+ colonies on selective medium; deletion mutants of mouse α7
T1 construct: made in house; host or cells: yeast (Y190 for the screen, CG1945 for the deletion analysis)
T1 sequence (O70435 1-255): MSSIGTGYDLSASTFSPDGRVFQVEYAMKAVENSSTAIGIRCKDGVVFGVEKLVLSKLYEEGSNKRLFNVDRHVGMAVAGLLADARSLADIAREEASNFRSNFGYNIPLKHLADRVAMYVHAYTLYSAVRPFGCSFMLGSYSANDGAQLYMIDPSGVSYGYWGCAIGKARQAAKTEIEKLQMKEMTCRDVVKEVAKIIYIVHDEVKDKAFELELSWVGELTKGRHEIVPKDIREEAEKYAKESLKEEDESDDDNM
Excerpt: Two-hybrid screening was done using Clontech MATCHMAKER GAL4 System 2 (Clontech). cDNA of porcine PR39 peptide corresponding to the 4th exon (amino acids 131 to 169) was subcloned into pAS2-1 vector as bait. Mouse embryo 3T3 MATCHMAKER cDNA library (Clontech) was screened in the yeast Y190 strain. Plasmids from HIS3/LacZ positive clones were sequenced and co-transformed with bait plasmid back into the Y190 strain to confirm the interaction.
To identify possible intracellular targets of PR-39 peptide action, a yeast two-hybrid screen of mouse CDNA library was performed using the unique 4th exon DNA sequence of porcine PR-39 gene as “bait”. […] All four clones encoded overlapping identical cDNA sequences which are highly homologous to the sequence of the human α7 (HC8) subunit of the 20S proteasome (GeneBank accession AF055983).
Deletion mutants of the mouse α7 subunit were cloned into yeast two-hybrid vector, and the extent of growth of lacZ+ colonies on selective medium following co-transformation with PR-39 construct in the yeast CG1945 was determined.

IκBα [3] = target: T2, IκBα (Homo sapiens, UniProt P25963); assay: In vitro IκBα ubiquitination assay with HeLa cell extract; conditions: cell free system, two different concentrations
T2 sequence (P25963 1-317): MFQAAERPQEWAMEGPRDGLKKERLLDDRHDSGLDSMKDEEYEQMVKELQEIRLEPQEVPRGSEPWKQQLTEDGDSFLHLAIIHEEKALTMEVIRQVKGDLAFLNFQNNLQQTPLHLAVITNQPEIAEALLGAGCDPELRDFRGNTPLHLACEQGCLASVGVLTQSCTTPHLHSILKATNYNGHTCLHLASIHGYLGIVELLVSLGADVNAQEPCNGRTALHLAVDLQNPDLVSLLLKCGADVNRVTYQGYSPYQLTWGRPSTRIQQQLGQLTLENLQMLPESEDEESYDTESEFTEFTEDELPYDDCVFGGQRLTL
Experimental: HeLa cells were harvested by centrifugation at 4,000 rpm. The packed cell volume was estimated, and the cells osmotically lysed by the addition of 5 volumes of hypotonic buffer (10 mM Tris-Cl, pH 7.9, 1.5 mM MgCl2, 10 mM KCl, 0.2 mM PMSF, 0.5 mM DTT). The mixture was incubated on ice for 10 minutes, then homogenized with 12 strokes of a Dounce homogenizer (B Type pestle). The crude lysate was centrifuged for 15 minutes at 4,000 rpm, followed by recentrifugation of the supernatant at 100,000×g for 30 minutes. This supernatant was concentrated by the addition of solid (NH4)2SO4 to 80% saturation, stirred at 4° C. for 30 minutes and centrifuged for 15 minutes at 12,000 rpm. The precipitate was resuspended in 1/5 volume of 20 mM Tris-Cl pH7.6, 20 mM KCl, 5 mM MgCl 2, 1 mM DTT, 0.5 mM PMSF, 5 μM Chymostatin and 20 μM E64, and dialyzed against >500 volumes of 20 mM Tris-Cl pH 7.6, 20 mM KCl, 5 mM MgCl2, 1 mM DTT, 10% glycerol at 4° C. overnight and stored at −70° C. until use.
PR-39 or control peptides were also added to individual reactions. […] The samples were then heated for 5 minutes at 95° C. and analyzed by SDA-PAGE on 4-15% acrylamide gradient gels (BioRad, Hurcules, Calif.). After electrophoresis, the gels were incubated with gentle stirring in 30% methanol 10% acetic acid, dried and analyzed using a Fuji phosphorimager. […]

RRRPRPPYLPRPRPPPFFPPRLPPRIPPGFPPRFPPRFP [PR-39]
inhibition of total cell protein degradation (U937 cells): little or no effect
NFκB-dependent gene expression (ICAM-1 and VCAM-1 protein levels) (ICAM-1 and VCAM-1): blocks NFκB-dependent gene expression
extent of IκBα degradation after washout (IκBα [1]): complete disappearance of IκBα protein
levels of p21, cyclin E and c-fos (p21, cyclin E and c-fos; ECV304 cells): failed to demonstrate any effect
proteasome-mediated degradation of p21, cyclin E and c-fos (p21, cyclin E and c-fos; U937 cells pretreated with various amounts, then TNF-α 1 ng/ml): lack of PR-39 dependent inhibition
binding of PR-39 to α7 and its fragments [2]: only the full length a7 construct was able to bind to PR-39
IκBα ubiquitination in vitro (IκBα [3]): failed to affect IκBα ubiquitination
